Experimental data from the supplement of paper PMC11061612.

How the values were obtained:
Assay in all cases: combination Emax (second highest fraction inhibited in the dose matrix, 72 h); higher = more inhibition; extreme values may be limits of the assay
[1] = tested on: NCI-H847 (Small Cell Lung Carcinoma)
In short: (§1)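 Bliss excess equals the observed combination effect minus the expected value EA + EB − EA·EB, where EA and EB are the effects of each agent alone. Combination Emax is the second-highest inhibition within the matrix. Inhibition was scaled from CellTiter-Glo 2.0 luminescence, with 0 set by vehicle wells and 1 by blank wells, after 72 hours of two-drug dosing of cells plated in 1536-well plates.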

ES1 (Ewing's Sarcoma) = tested on: ES1 (Ewing's Sarcoma)
In short: as §1

[2] = tested on: NCI-H1792 (Lung Adenocarcinoma)
In short: as §1

[3] = tested on: SR (Other Blood Carcinomas)
In short: as §1

[4] = tested on: HDQ-P1 (Breast Carcinoma)
In short: as §1

[5] = tested on: K-562 (Chronic Myelogenous Leukemia)
In short: as §1

CHP-212 (Neuroblastoma) = tested on: CHP-212 (Neuroblastoma)
In short: as §1

WM-115 (Melanoma) = tested on: WM-115 (Melanoma)
In short: as §1

[6] = tested on: GR-ST (B-Lymphoblastic Leukemia)
In short: as §1

[7] = tested on: PANC-08-13 (Pancreatic Carcinoma)
In short: as §1

[8] = tested on: MFM-223 (Breast Carcinoma)
In short: as §1

TC-71 (Ewing's Sarcoma) = tested on: TC-71 (Ewing's Sarcoma)
In short: as §1

[9] = tested on: MKN28 (Gastric Carcinoma)
In short: as §1

[10] = tested on: L-540 (Hodgkin's Lymphoma)
In short: as §1

[11] = tested on: KARPAS-45 (T-Lymphoblastic Leukemia)
In short: as §1

[12] = tested on: MS751 (Cervical Carcinoma)
In short: as §1

[13] = tested on: SU-DHL-8 (B-Cell Non-Hodgkin's Lymphoma)
In short: as §1

[14] = tested on: DND-41 (T-Lymphoblastic Leukemia)
In short: as §1

[15] = tested on: KCL-22 (Chronic Myelogenous Leukemia)
In short: as §1

NCI-H2818 (Mesothelioma) = tested on: NCI-H2818 (Mesothelioma)
In short: as §1

Row | SMILES | combination Emax [1] | combination Emax (ES1 (Ewing's Sarcoma)) | combination Emax [2] | combination Emax [3] | combination Emax [4] | combination Emax [5] | combination Emax (CHP-212 (Neuroblastoma)) | combination Emax (WM-115 (Melanoma)) | combination Emax [6] | combination Emax [7] | combination Emax [8] | combination Emax (TC-71 (Ewing's Sarcoma)) | combination Emax [9] | combination Emax [10] | combination Emax [11] | combination Emax [12] | combination Emax [13] | combination Emax [14] | combination Emax [15] | combination Emax (NCI-H2818 (Mesothelioma))
1 | Cc1cc2ncnn2cc1Nc1ncc2c(n1)n(C1CCOCC1)c(=O)n2C [AZD7648] + CN(C)CCCOc1ccc(-c2ccc3ncc4c(c3c2)n(C2CCOCC2)c(=O)n4C)cn1 [AZD0156] (first compound max 10 µM, 7x7, partner max 1 µM) | 0.663 | 0.478 | 0.469 | 0.377 | 0.403 | 0.2 | 0.288 | 0.328 | 0.489 | 0.223 | 0.238 | 0.246 | 0.287 | 0.366 | 0.234 | 0.275 | 0.125 | 0.242 | 0.332 | 0.368
2 | Cc1cc2ncnn2cc1Nc1ncc2c(n1)n(C1CCOCC1)c(=O)n2C [AZD7648] + C[C@@H]1COCCN1C2=NC(=NC(=C2)C3(CC3)[S@](=N)(=O)C)C4=C5C=CNC5=NC=C4 [AZD6738] (first compound max 10 µM, 7x7, partner max 10 µM) | 1 | 0.913 | 0.696 | 0.924 | 0.468 | 0.892 | 0.776 | 0.571 | 0.743 | 0.325 | 0.832 | 0.835 | 0.514 | 0.951 | 0.74 | 0.296 | 0.899 | 0.894 | 0.983 | 0.43
3 | Cc1cc2ncnn2cc1Nc1ncc2c(n1)n(C1CCOCC1)c(=O)n2C [AZD7648] + O=C(c1cc(Cc2n[nH]c(=O)c3ccccc23)ccc1F)N1CCN(C(=O)C2CC2)CC1 [Olaparib] (first compound max 10 µM, 7x7, partner max 10 µM) | 0.853 | 0.686 | 0.322 | 0.514 | 0.41 | 0.176 | 0.529 | 0.229 | 0.472 | 0.102 | 0.172 | 0.6 | 0.103 | 0.396 | 0.177 | 0.197 | 0.448 | 0.26 | 0.25 | 0.328
4 | COc1cccc2c1C(=O)c1c(O)c3c(c(O)c1C2=O)C[C@@](O)(C(=O)CO)C[C@@H]3O[C@H]1C[C@H](N)[C@H](O)[C@H](C)O1 [Doxorubicin] + Cc1cc2ncnn2cc1Nc1ncc2c(n1)n(C1CCOCC1)c(=O)n2C [AZD7648] (first compound max 1 µM, 7x7, partner max 10 µM) | 0.961 | 1 | 0.923 | 0.994 | 0.682 | 0.823 | 0.782 | 0.678 | 0.69 | 0.182 | 0.671 | 0.965 | 0.503 | 0.931 | 0.337 | 0.891 | 0.943 | 0.889 | 0.932 | 0.694
5 | COc1cccc(OCCCN)c1-c1cc(Nc2cnc(C#N)cn2)n[nH]1 [Prexasertib] + C=CCn1c(=O)c2cnc(Nc3ccc(N4CCN(C)CC4)cc3)nc2n1-c1cccc(C(C)(C)O)n1 [AZD1775] (first compound max 1 µM, partner max 1 µM) | 1 | 1 | 0.915 | 1 | 0.856 | 0.98 | 0.811 | 0.614 | 0.82 | 0.544 | 0.897 | 1 | 0.725 | 0.967 | 1 | 0.701 | 0.964 | 0.88 | 0.997 | 0.359
6 | COc1cccc(OCCCN)c1-c1cc(Nc2cnc(C#N)cn2)n[nH]1 [Prexasertib] + CCc1c2c(nc3ccc(O)cc13)-c1cc3c(c(=O)n1C2)COC(=O)[C@]3(O)CC [SN-38] (first compound max 1 µM, 7x7, partner max 0.3 µM) | 1 | 1 | 0.893 | 0.998 | 0.944 | 0.983 | 0.827 | 0.514 | 0.871 | 0.702 | 0.881 | 1 | 0.742 | 0.95 | 1 | 0.984 | 1 | 0.943 | 0.989 | 0.423
7 | COc1cccc(OCCCN)c1-c1cc(Nc2cnc(C#N)cn2)n[nH]1 [Prexasertib] + CN(C)CCCOc1ccc(-c2ccc3ncc4c(c3c2)n(C2CCOCC2)c(=O)n4C)cn1 [AZD0156] (first compound max 1 µM, 7x7, partner max 1 µM) | 1 | 1 | 0.825 | 1 | 0.538 | 0.979 | 0.782 | 0.566 | 0.822 | 0.467 | 0.74 | 0.977 | 0.597 | 0.968 | 0.971 | 0.378 | 0.964 | 0.811 | 1 | 0.282
